Measurements: PubChem BioAssay AID256 (DTP/NCI, 2004)
Where “and” joins values, the source holds several entries; their conditions need not be identical. Equal entries are not always repeated. Toxic doses and inconclusive results are not listed.

System: CD2F1 mice, L1210 leukemia ip, survival T/C
Experiment: NCI In Vivo Anticancer Drug Screen. Data for tumor model L1210 Leukemia (intraperitoneal) in CD2F1 (CDF1) mice
Details: higher = longer survival
Procedure, shortened: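 Tumor-bearing mice (transplanted tumor) were split into treated and vehicle control groups, and the measured endpoint of each treated group was divided by that of its vehicle controls.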

[1] = endpoint: mean survival time, dose: 200.0 mg/kg/injection, schedule: Q01DX009 (ip), vehicle: saline with Tween-80
[2] = endpoint: mean survival time, dose: 100.0 mg/kg/injection, schedule: Q01DX009 (ip), vehicle: saline with Tween-80
[3] = endpoint: mean survival time, dose: 400.0 mg/kg/injection, schedule: Q01DX009 (ip), vehicle: saline with Tween-80
[4] = endpoint: mean survival time, dose: 200.0 mg/kg/injection, schedule: Q01DX001 (ip), vehicle: saline with Tween-80
[5] = endpoint: mean survival time, dose: 100.0 mg/kg/injection, schedule: Q01DX001 (ip), vehicle: saline with Tween-80
[6] = endpoint: mean survival time, dose: 400.0 mg/kg/injection, schedule: Q01DX001 (ip), vehicle: saline with Tween-80

NC(C(=O)O)C(CC(=O)O)C(=O)O (stereo unspecified)
T/C (endpoint: mean survival time, dose: 100.0 mg/kg/injection, schedule: Q04DX002 (ip), vehicle: saline): 111 % of control
T/C (endpoint: mean survival time, dose: 200.0 mg/kg/injection, schedule: Q04DX002 (ip), vehicle: saline): 106 % of control
T/C (endpoint: mean survival time, dose: 400.0 mg/kg/injection, schedule: Q04DX002 (ip), vehicle: saline): 106 % of control

CN(C)NCc1ccccc1
T/C (endpoint: mean survival time, dose: 25.0 mg/kg/injection, schedule: Q01DX009 (ip), vehicle: saline): 102 % of control
T/C (endpoint: mean survival time, dose: 50.0 mg/kg/injection, schedule: Q01DX009 (ip), vehicle: saline): 102 % of control
T/C (endpoint: mean survival time, dose: 100.0 mg/kg/injection, schedule: Q01DX009 (ip), vehicle: saline): 94 % of control and 107 % of control

O=C(O)O
T/C (endpoint: mean survival time, dose: 200.0 mg/kg/injection, schedule: Q01DX001 (ip), vehicle: saline): 105 % of control
T/C [1]: 107 % of control
T/C (endpoint: mean survival time, dose: 400.0 mg/kg/injection, schedule: Q01DX001 (ip), vehicle: saline): 100 % of control

[Cl][Pt+2][Cl].[NH-]c1ccc(CC(=O)O)cc1[NH-]
T/C (endpoint: mean survival time, dose: 3.13 mg/kg/injection, schedule: Q04DX003 (ip), vehicle: water): 103 % of control
T/C (endpoint: mean survival time, dose: 6.25 mg/kg/injection, schedule: Q04DX003 (ip), vehicle: water): 105 % of control
T/C (endpoint: mean survival time, dose: 12.5 mg/kg/injection, schedule: Q04DX003 (ip), vehicle: water): 101 % of control
T/C (endpoint: mean survival time, dose: 25.0 mg/kg/injection, schedule: Q04DX003 (ip), vehicle: water): 116 % of control

OCC(F)(F)C(F)(F)C(F)(F)F
T/C (endpoint: mean survival time, dose: 75.0 mg/kg/injection, schedule: Q01DX009 (ip), vehicle: saline): 95 % of control
T/C (endpoint: mean survival time, dose: 150.0 mg/kg/injection, schedule: Q01DX009 (ip), vehicle: saline): 95 % of control
T/C (endpoint: mean survival time, dose: 300.0 mg/kg/injection, schedule: Q01DX009 (ip), vehicle: saline): 103 % of control
T/C (endpoint: mean survival time, dose: 600.0 mg/kg/injection, schedule: Q01DX009 (ip), vehicle: saline): 86 % of control

Cn1c(Cl)nc2c(Cl)nc(Cl)nc21
T/C (endpoint: mean survival time, dose: 50.0 mg/kg/injection, schedule: Q04DX003 (ip), vehicle: Klucel (hydroxypropylcellulose) (HPC)): 100 % of control
T/C (endpoint: mean survival time, dose: 100.0 mg/kg/injection, schedule: Q04DX003 (ip), vehicle: Klucel (hydroxypropylcellulose) (HPC)): 104 % of control

Cc1ccc(S(=O)(=O)NC(=S)S)cc1
T/C (endpoint: mean survival time, dose: 12.5 mg/kg/injection, schedule: Q01DX009 (ip), vehicle: saline with Tween-80): 102 % of control and 110 % of control
T/C (endpoint: mean survival time, dose: 25.0 mg/kg/injection, schedule: Q01DX009 (ip), vehicle: saline with Tween-80): 115 % of control and 103 % of control
T/C (endpoint: mean survival time, dose: 50.0 mg/kg/injection, schedule: Q01DX009 (ip), vehicle: saline with Tween-80): 110 % of control and 112 % of control
T/C [2]: 113 % of control and 103 % of control
T/C [1]: 105 % of control and 111 % of control
T/C [3]: 105 % of control and 109 % of control

COc1ccc2nc3c(Cl)cccc3c(Cl)c2c1
T/C (endpoint: mean survival time, dose: 50.0 mg/kg/injection, schedule: Q04DX003 (ip), vehicle: saline with Tween-80): 98 % of control
T/C (endpoint: mean survival time, dose: 100.0 mg/kg/injection, schedule: Q04DX003 (ip), vehicle: saline with Tween-80): 97 % of control
T/C [4]: 87 % of control
T/C (endpoint: mean survival time, dose: 200.0 mg/kg/injection, schedule: Q04DX003 (ip), vehicle: saline with Tween-80): 101 % of control

O=c1n(CC2CO2)c(=O)n(CC2CO2)n1CC1CO1 (stereo unspecified)
T/C (endpoint: median survival time, dose: 1.5 mg/kg/injection, schedule: Q01DX009 (ip), vehicle: saline): 113 % of control
T/C (endpoint: median survival time, dose: 1.5 mg/kg/injection, schedule: Q03HX024 (ip), vehicle: saline): 121 % of control
T/C (endpoint: median survival time, dose: 3.0 mg/kg/injection, schedule: Q03HX024 (ip), vehicle: saline): 195 % of control
T/C (endpoint: median survival time, dose: 6.0 mg/kg/injection, schedule: Q01DX009 (ip), vehicle: saline): 182 % of control
T/C (endpoint: median survival time, dose: 6.0 mg/kg/injection, schedule: Q03HX024 (ip), vehicle: saline): 253 % of control
T/C (endpoint: median survival time, dose: 6.25 mg/kg/injection, schedule: Q01DX009 (ip), vehicle: saline): 168 % of control and 277 % of control
T/C (endpoint: median survival time, dose: 7.5 mg/kg/injection, schedule: Q01DX003 (iv), vehicle: saline): 107 % of control
T/C (endpoint: median survival time, dose: 7.5 mg/kg/injection, schedule: Q01DX005 (ip), vehicle: saline): 151 % of control
T/C (endpoint: median survival time, dose: 10.0 mg/kg/injection, schedule: Q01DX005 (ip), vehicle: saline): 192 % of control
T/C (endpoint: median survival time, dose: 12.0 mg/kg/injection, schedule: Q01DX009 (ip), vehicle: saline): 365 % of control
T/C (endpoint: median survival time, dose: 12.0 mg/kg/injection, schedule: Q03HX008 (ip), vehicle: saline): 86 % of control
T/C (endpoint: median survival time, dose: 12.0 mg/kg/injection, schedule: Q03HX024 (ip), vehicle: saline): 106 % of control
T/C (endpoint: median survival time, dose: 12.5 mg/kg/injection, schedule: Q01DX009 (ip), vehicle: saline): 231 % of control and 277 % of control
T/C (endpoint: median survival time, dose: 15.0 mg/kg/injection, schedule: Q01DX005 (ip), vehicle: saline): 210 % of control and 240 % of control
T/C (endpoint: median survival time, dose: 15.0 mg/kg/injection, schedule: Q04DX003 (ip), vehicle: saline): 182 % of control
T/C (endpoint: median survival time, dose: 15.0 mg/kg/injection, schedule: Q08DX002 (ip), vehicle: saline): 159 % of control
T/C (endpoint: median survival time, dose: 24.0 mg/kg/injection, schedule: Q01DX009 (ip), vehicle: saline): 365 % of control
T/C (endpoint: median survival time, dose: 25.0 mg/kg/injection, schedule: Q01DX001 (iv), vehicle: saline): 120 % of control
T/C (endpoint: median survival time, dose: 25.0 mg/kg/injection, schedule: Q01DX009 (ip), vehicle: saline): 121 % of control and 277 % of control
T/C (endpoint: median survival time, dose: 30.0 mg/kg/injection, schedule: Q01DX001 (ip), vehicle: saline): 195 % of control
T/C (endpoint: median survival time, dose: 30.0 mg/kg/injection, schedule: Q01DX003 (iv), vehicle: saline): 171 % of control
T/C (endpoint: median survival time, dose: 30.0 mg/kg/injection, schedule: Q01DX005 (ip), vehicle: saline): 92 % of control
T/C (endpoint: median survival time, dose: 30.0 mg/kg/injection, schedule: Q04DX003 (ip), vehicle: saline): 731 % of control
T/C (endpoint: median survival time, dose: 30.0 mg/kg/injection, schedule: Q08DX002 (ip), vehicle: saline): 198 % of control
T/C (endpoint: median survival time, dose: 40.0 mg/kg/injection, schedule: Q01DX001 (ip), vehicle: saline): 186 % of control
T/C (endpoint: median survival time, dose: 40.0 mg/kg/injection, schedule: Q04DX003 (ip), vehicle: saline): 292 % of control
T/C (endpoint: median survival time, dose: 40.0 mg/kg/injection, schedule: Q08DX002 (ip), vehicle: saline): 256 % of control
T/C (endpoint: median survival time, dose: 48.0 mg/kg/injection, schedule: Q01DX009 (ip), vehicle: saline): 106 % of control
T/C (endpoint: median survival time, dose: 50.0 mg/kg/injection, schedule: Q01DX001 (iv), vehicle: saline): 157 % of control
T/C (endpoint: median survival time, dose: 50.0 mg/kg/injection, schedule: Q08DX002 (ip), vehicle: saline): 731 % of control
T/C (endpoint: median survival time, dose: 60.0 mg/kg/injection, schedule: Q01DX001 (ip), vehicle: saline): 731 % of control
T/C (endpoint: median survival time, dose: 60.0 mg/kg/injection, schedule: Q01DX005 (oral), vehicle: saline): 182 % of control
T/C (endpoint: median survival time, dose: 80.0 mg/kg/injection, schedule: Q01DX001 (ip), vehicle: saline): 97 % of control
T/C (endpoint: median survival time, dose: 80.0 mg/kg/injection, schedule: Q01DX001 (iv), vehicle: saline): 89 % of control
T/C (endpoint: median survival time, dose: 160.0 mg/kg/injection, schedule: Q01DX001 (oral), vehicle: saline): 175 % of control
T/C (endpoint: median survival time, dose: 240.0 mg/kg/injection, schedule: Q01DX001 (oral), vehicle: saline): 97 % of control

O=C1Nc2ccccc2/C1=N/N=C/c1cc(Cl)cc(Cl)c1O
T/C [5]: 94 % of control
T/C [6]: 95 % of control

Cc1cc(OCC2=NCCN2)c(C)c(C)c1Cl
T/C (endpoint: mean survival time, dose: 6.25 mg/kg/injection, schedule: Q04DX002 (ip), vehicle: saline with Tween-80): 94 % of control
T/C (endpoint: mean survival time, dose: 12.5 mg/kg/injection, schedule: Q04DX002 (ip), vehicle: saline with Tween-80): 94 % of control
T/C (endpoint: mean survival time, dose: 25.0 mg/kg/injection, schedule: Q04DX002 (ip), vehicle: saline with Tween-80): 97 % of control

CC1=C(C)CS(=O)(=O)N(c2ccccc2)C1
T/C [5]: 101 % of control
T/C [2]: 98 % of control
T/C [4]: 98 % of control
T/C [1]: 95 % of control
T/C [6]: 86 % of control
T/C [3]: 95 % of control

CSc1c(N)nc(N)[nH]c1=O
T/C (endpoint: mean survival time, dose: 100.0 mg/kg/injection, schedule: Q01DX001 (ip), vehicle: alkali diluted with water): 96 % of control
T/C (endpoint: mean survival time, dose: 200.0 mg/kg/injection, schedule: Q01DX001 (ip), vehicle: alkali diluted with water): 94 % of control
T/C (endpoint: mean survival time, dose: 400.0 mg/kg/injection, schedule: Q01DX001 (ip), vehicle: alkali diluted with water): 96 % of control

CC(C)(O)/C=C/C(=O)[C@](C)(O)[C@H]1[C@H](O)C[C@@]2(C)[C@@H]3CC=C4[C@@H](C=C(O)C(=O)C4(C)C)[C@]3(C)C(=O)C[C@]12C
T/C (endpoint: median survival time, dose: 0.5 mg/kg/injection, schedule: Q01DX005 (ip), vehicle: water): 113 % of control
T/C (endpoint: median survival time, dose: 1.0 mg/kg/injection, schedule: Q01DX005 (ip), vehicle: water): 110 % of control
